Assays:
[1] = test system: BPLER cells; test: Secondary (cherry-pick) screen with the 4 individual siRNAs of each pool; conditions: for Cherry_Score: secondary cherry-pick screen, 4 individual siRNAs of each pool
[2] = test system: BPLER cells; test: Genome-wide siRNA lethality screen (primary screen), CellTiterGlo viability; format: cell-based, human; conditions: for MAD BPLER / Fold BPLER: siRNA pool against the gene; for MAD BPLER: MAD score of viability in BPLER cells; for Fold BPLER: fold viability in BPLER cells; for Ratio: R, BPLER versus HMLER, primary screen
[3] = test system: HMLER cells; test: as above; format: cell-based, human; conditions: for MAD_HMLER / Fold_HMLER: primary screen, HMLER cells; for MAD_HMLER: MAD score; for MAD HMLER: MAD score of viability in HMLER cells; for Fold HMLER: fold viability in HMLER cells
[4] = secondary screen with the 4 individual siRNAs of each pool
[5] = ratio of Fold_BPLER to Fold_HMLER
[6] = ratio of fold viability BPLER/HMLER
[7] = siRNA pool against the gene, fold viability
[8] = validation screen with individual siRNAs of each pool

| Substance | Cherry_Score [1] | Cherry Score [1, 4] | Ratio BPLER/HMLER [2, 5] | Ratio BPLER/HMLER [2, 6] | MAD BPLER [2] | Fold BPLER [2] | MAD_HMLER ([3]; siRNA pool against the gene) | Fold_HMLER [3, 7] | MAD HMLER ([3]; siRNA pool against the gene) | Fold HMLER ([3]; siRNA pool against the gene) | Cherry Score [1, 8] | Ratio [2] | Fold_HMLER ([3]; siRNA pool) |
| --- | --- | --- | --- | --- | --- | --- | --- | --- | --- | --- | --- | --- | --- |
| PHF1 | 1 | 1 | 0.71 | 0.71 | −3.21 | 0.606 | −0.72 | 0.86 | −0.72 | 0.86 | – | – | – |
| SCD | 2 | 2 | 0.74 | 0.74 | −3.24 | 0.555 | −1.58 | 0.75 | −1.58 | 0.75 | – | – | – |
| NM_152374 | – | – | – | – | – | – | – | – | – | – | 2 | 0.72 | 0.97 |
| NM_152905 | – | – | – | – | – | – | – | – | – | – | 1 | 0.67 | 1.08 |
| TANC2 | 1 | 1 | 0.67 | 0.67 | −1.86 | 0.709 | 0.40 | 1.05 | 0.40 | 1.05 | – | – | – |
| SETX | 1 | 1 | 0.70 | 0.70 | −2.40 | 0.617 | −0.72 | 0.89 | −0.72 | 0.89 | – | – | – |
| NM_032425 | – | – | – | – | – | – | – | – | – | – | 2 | 0.73 | 0.77 |
| NM_198080 | – | – | – | – | – | – | – | – | – | – | 1 | 0.67 | 0.85 |
| SLC24A3 | 1 | 1 | 0.72 | 0.72 | −2.23 | 0.637 | −0.75 | 0.88 | −0.75 | 0.88 | – | – | – |
| TUT1 | 2 | 2 | 0.69 | 0.69 | −1.91 | 0.680 | −0.07 | 0.99 | −0.07 | 0.99 | – | – | – |
| PCBP3 | 1 | 1 | 0.71 | 0.71 | −1.69 | 0.727 | 0.15 | 1.02 | 0.15 | 1.02 | – | – | – |
| NUP205 | 3 | 3 | 0.73 | 0.73 | −2.88 | 0.544 | −1.57 | 0.75 | −1.57 | 0.75 | – | – | – |
| SLC47A1 | 2 | 2 | 0.68 | 0.68 | −1.62 | 0.613 | −0.71 | 0.90 | −0.71 | 0.90 | – | – | – |
| TNPO1 | 1 | 1 | 0.70 | 0.70 | −1.99 | 0.630 | −0.59 | 0.90 | −0.59 | 0.90 | – | – | – |
| NM_052946 | – | – | – | – | – | – | – | – | – | – | 1 | 0.67 | 0.90 |
| NM_152496 | – | – | – | – | – | – | – | – | – | – | 1 | 0.72 | 0.64 |
| USP39 | 2 | 2 | 0.70 | 0.70 | −2.13 | 0.695 | −0.04 | 0.99 | −0.04 | 0.99 | – | – | – |
| TBC1D24 | 2 | 2 | 0.71 | 0.71 | −1.97 | 0.680 | −0.32 | 0.95 | −0.32 | 0.95 | – | – | – |
| PDCD4 | 1 | 1 | 0.73 | 0.73 | −2.81 | 0.462 | −2.25 | 0.63 | −2.25 | 0.63 | – | – | – |
| NM_134444 | – | – | – | – | – | – | – | – | – | – | 1 | 0.69 | 1.01 |
| PDE6C | 1 | 1 | 0.66 | 0.66 | −1.98 | 0.621 | −0.33 | 0.95 | −0.33 | 0.95 | – | – | – |
| STIM2 | 2 | 2 | 0.72 | 0.72 | −2.39 | 0.597 | −0.99 | 0.83 | −0.99 | 0.83 | – | – | – |
| NM_080730 | – | – | – | – | – | – | – | – | – | – | 1 | 0.72 | 0.99 |
| NOSTRIN | 1 | 1 | 0.67 | 0.67 | −2.06 | 0.604 | −0.69 | 0.90 | −0.69 | 0.90 | – | – | – |
| NM_148571 | – | – | – | – | – | – | – | – | – | – | 1 | 0.73 | 0.81 |
| NM_032916 | – | – | – | – | – | – | – | – | – | – | 2 | 0.70 | 0.70 |
| NM_152655 | – | – | – | – | – | – | – | – | – | – | 2 | 0.72 | 0.89 |
| TSG101 | 3 | 3 | 0.66 | 0.66 | −2.45 | 0.684 | 0.23 | 1.04 | 0.23 | 1.04 | – | – | – |
| POLA1 | 3 | 3 | 0.74 | 0.74 | −2.01 | 0.724 | −0.17 | 0.97 | −0.17 | 0.97 | – | – | – |

— patent US9689040B2, “Selective inhibitors of tumor-initiating cells” (Children's Medical Center Corporation, priority 2011, dated 2017)
